Results reported in PubChem BioAssay (NCI).
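Where inhibition never reached the appropriate level, the endpoint shown equals the highest concentration tested. Otherwise, values were interpolated linearly from a five-concentration, 48-hour dose response in 96-well plates. Definition used: TGI = concentration required for complete inhibition of growth.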

Tests used:
Assay in all cases: NCI-60 cell line screen, 48 h
[1] = system: UACC-257 melanoma
[2] = system: KM12 colon
[3] = system: 786-0 renal
[4] = system: IGROV1 ovarian
[5] = system: HOP-62 NSCLC
[6] = system: A498 renal
[7] = system: HT29 colon
[8] = system: T-47D breast
[9] = system: A549 NSCLC
[10] = system: MDA-N
[11] = system: PC-3 prostate
[12] = system: UACC-62 melanoma
[13] = system: NCI/ADR-RES ovarian
[14] = system: SF-268 CNS
[15] = system: M14 melanoma
[16] = system: MDA-MB-435
[17] = system: HCT-15 colon
[18] = system: MOLT-4 leukemia
[19] = system: SW-620 colon
[20] = system: NCI-H522 lung
[21] = system: U251 CNS
[22] = system: SK-MEL-28 melanoma
[23] = system: OVCAR-4 ovarian
[24] = system: SN12C renal
[25] = system: OVCAR-8 ovarian
[26] = system: SF-539 CNS
[27] = system: TK-10 renal
[28] = system: HOP-92 NSCLC
[29] = system: RPMI-8226 leukemia
[30] = system: LOX IMVI melanoma
[31] = system: OVCAR-5 ovarian
[32] = system: OVCAR-3 ovarian
[33] = system: SNB-75 CNS
[34] = system: HS 578T breast
[35] = system: SK-OV-3 ovarian
[36] = system: SK-MEL-5 melanoma
[37] = system: MDA-MB-231 breast
[38] = system: NCI-H226 lung
[39] = system: CCRF-CEM leukemia
[40] = system: CAKI-1 renal
[41] = system: NCI-H23 lung
[42] = system: SR leukemia
[43] = system: NCI-H460 lung
[44] = system: HCC-2998 colon
[45] = system: SNB-19 CNS
[46] = system: MALME-3M melanoma
[47] = system: HCT-116 colon
[48] = system: COLO 205 colon
[49] = system: UO-31 renal
[50] = system: ACHN renal
[51] = system: BT-549 breast
[52] = system: K-562 leukemia
[53] = system: RXF 393 renal
[54] = system: SK-MEL-2 melanoma
[55] = system: EKVX NSCLC
[56] = system: SF-295 CNS
[57] = system: MCF7 breast
[58] = system: HL-60(TB) leukemia
[59] = system: DU-145 prostate

CN1C(=O)c2ccccc2C(O)(c2ccccc2)C1(O)c1ccccc1 (stereo not given)
TGI [1]: > 100 µM | TGI [2]: > 100 µM | TGI [3]: > 100 µM | TGI [4]: > 100 µM | TGI [5]: > 100 µM | TGI [6]: > 100 µM | TGI [7]: > 100 µM | TGI [8]: > 100 µM | TGI [9]: > 100 µM | TGI [10]: > 100 µM | TGI [11]: > 100 µM | TGI [12]: > 100 µM | TGI [13]: > 100 µM | TGI [14]: > 100 µM | TGI [15]: > 100 µM | TGI [16]: > 100 µM | TGI [17]: > 100 µM | TGI [18]: > 100 µM | TGI [19]: > 100 µM | TGI [20]: > 100 µM | TGI [21]: > 100 µM | TGI [22]: > 100 µM | TGI [23]: > 100 µM | TGI [24]: > 100 µM | TGI [25]: > 100 µM | TGI [26]: > 100 µM | TGI [27]: > 100 µM | TGI [28]: 97.7 µM | TGI [29]: > 100 µM | TGI [30]: > 100 µM | TGI [31]: > 100 µM | TGI [32]: > 100 µM | TGI [33]: > 100 µM | TGI [34]: > 100 µM | TGI [35]: > 100 µM | TGI [36]: > 100 µM | TGI [37]: > 100 µM | TGI [38]: > 100 µM | TGI [39]: > 100 µM | TGI [40]: > 100 µM | TGI [41]: > 100 µM | TGI [42]: > 100 µM | TGI [43]: > 100 µM | TGI [44]: > 100 µM | TGI [45]: > 100 µM | TGI [46]: > 100 µM | TGI [47]: > 100 µM | TGI [48]: > 100 µM | TGI [49]: > 100 µM | TGI [50]: > 100 µM | TGI [51]: > 100 µM | TGI [52]: > 100 µM | TGI [53]: > 100 µM | TGI [54]: > 100 µM | TGI [55]: > 100 µM | TGI [56]: > 100 µM

O=[N+]([O-])c1ccc(CSc2nn(Cc3ccc([N+](=O)[O-])cc3)cc3ncnc2-3)cc1
TGI [1]: > 100 µM | TGI [2]: > 100 µM | TGI [3]: > 100 µM | TGI [4]: 52.1 µM | TGI [5]: > 100 µM | TGI [6]: 58.8 µM | TGI [7]: > 100 µM | TGI [8]: > 100 µM | TGI [9]: > 100 µM | TGI [10]: > 100 µM | TGI [11]: > 100 µM | TGI [12]: 40.7 µM | TGI [13]: > 100 µM | TGI [15]: > 100 µM | TGI [16]: 74.7 µM | TGI [17]: > 100 µM | TGI [18]: > 100 µM | TGI [19]: > 100 µM | TGI [20]: 67.8 µM | TGI [57]: > 100 µM | TGI [22]: 84.5 µM | TGI [23]: > 100 µM | TGI [24]: > 100 µM | TGI [25]: > 100 µM | TGI [26]: 95.5 µM | TGI [27]: > 100 µM | TGI [28]: 30.4 µM | TGI [29]: 75 µM | TGI [30]: > 100 µM | TGI [31]: > 100 µM | TGI [32]: > 100 µM | TGI [33]: > 100 µM | TGI [35]: > 100 µM | TGI [36]: > 100 µM | TGI [37]: > 100 µM | TGI [38]: > 100 µM | TGI [40]: > 100 µM | TGI [41]: > 100 µM | TGI [44]: > 100 µM | TGI [46]: 65.2 µM | TGI [47]: > 100 µM | TGI [48]: > 100 µM | TGI [49]: 61.2 µM | TGI [50]: > 100 µM | TGI [51]: 84.8 µM | TGI [52]: > 100 µM | TGI [54]: 49.1 µM | TGI [55]: > 100 µM | TGI [56]: > 100 µM | TGI [58]: 46.4 µM

Cc1ccsc1/C=N/NC1=NCCN1
TGI [1]: > 100 µM | TGI [59]: > 100 µM | TGI [2]: > 100 µM | TGI [3]: > 100 µM | TGI [4]: > 100 µM | TGI [5]: > 100 µM | TGI [6]: > 100 µM | TGI [7]: > 100 µM | TGI [8]: > 100 µM | TGI [9]: > 100 µM | TGI [10]: > 100 µM | TGI [11]: > 100 µM | TGI [12]: > 100 µM | TGI [13]: > 100 µM | TGI [14]: > 100 µM | TGI [15]: > 100 µM | TGI [16]: > 100 µM | TGI [17]: > 100 µM | TGI [18]: > 100 µM | TGI [19]: > 100 µM | TGI [21]: > 100 µM | TGI [57]: > 100 µM | TGI [22]: > 100 µM | TGI [23]: > 100 µM | TGI [24]: > 100 µM | TGI [25]: > 100 µM | TGI [27]: > 100 µM | TGI [28]: > 100 µM | TGI [29]: > 100 µM | TGI [30]: > 100 µM | TGI [31]: > 100 µM | TGI [32]: > 100 µM | TGI [33]: > 100 µM | TGI [34]: > 100 µM | TGI [35]: > 100 µM | TGI [36]: > 100 µM | TGI [37]: > 100 µM | TGI [38]: > 100 µM | TGI [39]: > 100 µM | TGI [40]: > 100 µM | TGI [41]: > 100 µM | TGI [44]: > 100 µM | TGI [45]: > 100 µM | TGI [46]: > 100 µM | TGI [47]: > 100 µM | TGI [48]: > 100 µM | TGI [49]: > 100 µM | TGI [50]: > 100 µM | TGI [51]: > 100 µM | TGI [52]: > 100 µM | TGI [53]: > 100 µM | TGI [54]: > 100 µM | TGI [55]: > 100 µM | TGI [56]: > 100 µM

CC1=C(C(=O)NNC(=O)Cc2ccccc2)CC(C(=O)NNC(=O)Cc2ccccc2)=C(C)N1
TGI [1]: > 100 µM | TGI [59]: > 100 µM | TGI [2]: > 100 µM | TGI [3]: > 100 µM | TGI [4]: > 100 µM | TGI [5]: > 100 µM | TGI [6]: > 100 µM | TGI [7]: > 100 µM | TGI [8]: > 100 µM | TGI [9]: > 100 µM | TGI [10]: > 100 µM | TGI [12]: > 100 µM | TGI [13]: > 100 µM | TGI [14]: > 100 µM | TGI [15]: > 100 µM | TGI [16]: > 100 µM | TGI [17]: > 100 µM | TGI [19]: > 100 µM | TGI [21]: > 100 µM | TGI [57]: > 100 µM | TGI [22]: > 100 µM | TGI [23]: > 100 µM | TGI [24]: > 100 µM | TGI [25]: > 100 µM | TGI [26]: > 100 µM | TGI [27]: > 100 µM | TGI [28]: > 100 µM | TGI [30]: > 100 µM | TGI [31]: > 100 µM | TGI [32]: > 100 µM | TGI [33]: > 100 µM | TGI [35]: > 100 µM | TGI [36]: > 100 µM | TGI [37]: > 100 µM | TGI [38]: > 100 µM | TGI [40]: > 100 µM | TGI [41]: > 100 µM | TGI [43]: > 100 µM | TGI [44]: > 100 µM | TGI [45]: > 100 µM | TGI [47]: > 100 µM | TGI [48]: > 100 µM | TGI [49]: > 100 µM | TGI [50]: > 100 µM | TGI [51]: > 100 µM | TGI [53]: > 100 µM | TGI [54]: > 100 µM | TGI [55]: > 100 µM | TGI [56]: > 100 µM | TGI [58]: > 100 µM
